According to patent US8952024B2, “Herbicidal pyrimidone derivatives” (E I du Pont de Nemours and Company, priority 2009, dated 2015):

Assays:
Format in all cases: in vivo
[1] = system: umbrella sedge (Cyperus difformis); experiment: Test B flooded paddy test; conditions: for Plant response rating, Flood, Sedge, Umbrella: 250 g ai/ha, flooded paddy test, visual rating on 0 to 100 scale (0 no effect, 100 complete control) after 13 to 15 days; for Plant response rating, Sedge, Umbrella: Flood (flooded paddy test), 13 to 15 days; for Sedge, Umbrella plant response rating: Flood, scale 0 to 100 (0 no effect, 100 complete control)
Source text: (§1) Plant species in the flooded paddy test consisted of rice (Oryza sativa), umbrella sedge (Cyperus difformis), ducksalad (Heteranthera limosa) and barnyardgrass (Echinochloa crus-galli) grown to the 2-leaf stage for testing. At the time of treatment, test pots were flooded with water to 3 cm above the soil surface, treated by application of test compounds directly to the paddy water, and then maintained at that water depth for the duration of the test.
(§2) Treated plants and controls were maintained in a greenhouse for 13 to 15 days, after which time all treated plants were visually evaluated and compared to controls. Plant response ratings, summarized in Table B, are based on a scale of 0 to 100 where 0 is no effect and 100 is complete control. A dash (-) response means no test result.

[2] = system: ducksalad (Heteranthera limosa); experiment: Test B flooded paddy test; conditions: for Plant response rating, Flood, Ducksalad: 250 g ai/ha, flooded paddy test, visual rating on 0 to 100 scale (0 no effect, 100 complete control) after 13 to 15 days; for Plant response rating, Ducksalad: Flood (flooded paddy test), 13 to 15 days; for Ducksalad plant response rating: Flood, scale 0 to 100 (0 no effect, 100 complete control)
Source text: as §1, §2

[3] = system: rice (Oryza sativa); experiment: Test B flooded paddy test; conditions: for Plant response rating, Flood, Rice: 250 g ai/ha, flooded paddy test, visual rating on 0 to 100 scale (0 no effect, 100 complete control) after 13 to 15 days; for Plant response rating, Rice: Flood (flooded paddy test), 13 to 15 days; for Rice plant response rating: Flood, scale 0 to 100 (0 no effect, 100 complete control)
Source text: as §1, §2

[4] = system: barnyardgrass (Echinochloa crus-galli); experiment: Test B flooded paddy test; conditions: for Plant response rating, Flood, Barnyardgrass: 250 g ai/ha, flooded paddy test, visual rating on 0 to 100 scale (0 no effect, 100 complete control) after 13 to 15 days; for Plant response rating, Barnyardgrass: Flood (flooded paddy test), 13 to 15 days; for Barnyardgrass plant response rating: Flood, scale 0 to 100 (0 no effect, 100 complete control)
Source text: as §1, §2

[5] = system: corn (Zea mays); experiment: Test A pre-/postemergence plant response
Source text: (§3) Seeds of barnyardgrass (Echinochloa crus-galli), large crabgrass (Digitaria sanguinalis), giant foxtail (Setaria faberii), morningglory (Ipomoea spp.), pigweed (Amaranthus retroflexus), velvetleaf (Abutilon theophrasti), wheat (Triticum aestivum) and corn (Zea mays) were planted into a blend of loam soil and sand and treated preemergence with a directed soil spray using test chemicals formulated in a non-phytotoxic solvent mixture which included a surfactant. At the same time these species were also treated with postemergence applications of test compounds formulated in the same manner.
(§4) Plants ranged in height from two to ten cm and were in the one- to two-leaf stage for the postemergence treatment. Treated plants and untreated controls were maintained in a greenhouse for approximately ten days, after which time all treated plants were compared to untreated controls and visually evaluated for injury. Plant response ratings, summarized in Table A, are based on a 0 to 100 scale where 0 is no effect and 100 is complete control. A dash (-) response means no test result.

[6] = system: velvetleaf (Abutilon theophrasti); experiment: Test A pre-/postemergence plant response
Source text: as §3, §4

[7] = system: giant foxtail (Setaria faberii); experiment: Test A pre-/postemergence plant response
Source text: as §3, §4

[8] = system: pigweed (Amaranthus retroflexus); experiment: Test A pre-/postemergence plant response
Source text: as §3, §4

[9] = system: large crabgrass (Digitaria sanguinalis); experiment: Test A pre-/postemergence plant response
Source text: as §3, §4

[10] = system: wheat (Triticum aestivum); experiment: Test A pre-/postemergence plant response
Source text: as §3, §4

[11] = system: barnyardgrass (Echinochloa crus-galli); experiment: Test A pre-/postemergence plant response
Source text: as §3, §4

[12] = system: morningglory (Ipomoea spp.); experiment: Test A pre-/postemergence plant response
Source text: as §3, §4

[13] = 31 g ai/ha, scale of 0 to 100 where 0 is no effect and 100 is complete control
[14] = 62 g ai/ha, scale 0 to 100, 0 is no effect, 100 is complete control
[15] = 125 g ai/ha, scale 0 to 100, 0 is no effect, 100 is complete control
[16] = Postemergence, 125 g ai/ha, visual injury, 0 to 100 scale (0 no effect, 100 complete control), approx. ten days
[17] = Postemergence, 500 g ai/ha, 0 to 100 scale, 0 = no effect, 100 = complete control, approx. ten days
[18] = Preemergence, 125 g ai/ha, 0 to 100 scale, 0 = no effect, 100 = complete control
[19] = Preemergence, 500 g ai/ha, visual injury, 0 to 100 scale (0 no effect, 100 complete control), approx. ten days
[20] = 62 g ai/ha, scale of 0 to 100 where 0 is no effect and 100 is complete control
[21] = Postemergence, 125 g ai/ha, 0 to 100 scale where 0 is no effect and 100 is complete control
[22] = Postemergence, 500 g ai/ha, visual injury, 0 to 100 scale (0 no effect, 100 complete control), approx. ten days
[23] = Preemergence, 500 g ai/ha, 0 to 100 scale, 0 = no effect, 100 = complete control
[24] = Preemergence, 125 g ai/ha, 0 to 100 scale where 0 is no effect and 100 is complete control, approximately ten days

Cc1cccc(-n2c(-c3ccccc3)ncc(C(=O)C3=C(O)CCCC3=O)c2=O)c1 [Compound 18]
Plant response rating, Flood, Sedge, Umbrella [1]: 85 | Plant response rating, Sedge, Umbrella [1, 13]: 0 | Plant response rating, Sedge, Umbrella [1, 14]: 30 | Plant response rating, Sedge, Umbrella [1, 15]: 50 | Plant response rating, Flood, Ducksalad [2]: 90 | Plant response rating, Ducksalad [2, 13]: 20 | Plant response rating, Ducksalad [2, 14]: 50 | Plant response rating, Ducksalad [2, 15]: 65 | Plant response rating, Flood, Rice [3]: 25 | Plant response rating, Rice [3, 13]: 10 | Plant response rating, Rice [3, 14]: 15 | Plant response rating, Rice [3, 15]: 25 | Plant response rating, Flood, Barnyardgrass [4]: 50 | Plant response rating, Barnyardgrass [4, 13]: 10 | Plant response rating, Barnyardgrass [4, 14]: 20 | Plant response rating, Barnyardgrass [4, 15]: 20 | Corn plant response rating [5, 16]: 0 | Plant response rating, Corn [5, 17]: 20 | Plant response rating, Corn [5, 18]: 0 | Plant response rating, Corn [5, 19]: 20 | Velvetleaf plant response rating [6, 16]: 100 | Plant response rating, Velvetleaf [6, 17]: 100 | Plant response rating, Velvetleaf [6, 18]: 30 | Plant response rating, Velvetleaf [6, 19]: 100 | Foxtail, Giant plant response rating [7, 16]: 40 | Plant response rating, Foxtail, Giant [7, 17]: 90 | Plant response rating, Foxtail, Giant [7, 18]: 40 | Plant response rating, Foxtail, Giant [7, 19]: 90 | Pigweed plant response rating [8, 16]: 100 | Plant response rating, Pigweed [8, 17]: 100 | Plant response rating, Pigweed [8, 18]: 70 | Plant response rating, Pigweed [8, 19]: 100 | Crabgrass, Large plant response rating [9, 16]: 30 | Plant response rating, Crabgrass, Large [9, 17]: 80 | Plant response rating, Crabgrass, Large [9, 18]: 60 | Plant response rating, Crabgrass, Large [9, 19]: 100 | Wheat plant response rating [10, 16]: 0 | Plant response rating, Wheat [10, 17]: 50 | Plant response rating, Wheat [10, 18]: 0 | Plant response rating, Wheat [10, 19]: 40 | Barnyardgrass plant response rating [11, 16]: 20 | Plant response rating, Barnyardgrass [11, 17]: 90 | Plant response rating, Barnyardgrass [11, 18]: 10 | Plant response rating, Barnyardgrass [11, 19]: 100 | Morningglory plant response rating [12, 16]: 40 | Plant response rating, Morningglory [12, 17]: 100 | Plant response rating, Morningglory [12, 18]: 20 | Plant response rating, Morningglory [12, 19]: 70

Cc1cccc(-c2ncc(C(=O)C3=C(O)CCCC3=O)c(=O)n2-c2ccc(F)cc2C)c1 [Compound 192]
Plant response rating, Flood, Sedge, Umbrella [1]: 60 | Plant response rating, Sedge, Umbrella [1, 20]: 40 | Plant response rating, Sedge, Umbrella [1, 15]: 50 | Sedge, Umbrella plant response rating ([1]; 31 g ai/ha): 0 | Plant response rating, Flood, Ducksalad [2]: 75 | Plant response rating, Ducksalad [2, 20]: 60 | Plant response rating, Ducksalad [2, 15]: 75 | Ducksalad plant response rating ([2]; 31 g ai/ha): 60 | Plant response rating, Flood, Rice [3]: 20 | Plant response rating, Rice [3, 20]: 0 | Plant response rating, Rice [3, 15]: 0 | Rice plant response rating ([3]; 31 g ai/ha): 0 | Plant response rating, Flood, Barnyardgrass [4]: 0 | Plant response rating, Barnyardgrass [4, 20]: 0 | Plant response rating, Barnyardgrass [4, 15]: 0 | Barnyardgrass plant response rating ([4]; 31 g ai/ha): 0 | Plant response rating, Corn [5, 21]: 0 | Corn plant response rating [5, 22]: 40 | Plant response rating, Corn [5, 18]: 40 | Plant response rating, Corn [5, 23]: 40 | Plant response rating, Velvetleaf [6, 21]: 70 | Velvetleaf plant response rating [6, 22]: 100 | Plant response rating, Velvetleaf [6, 18]: 0 | Plant response rating, Velvetleaf [6, 23]: 60 | Plant response rating, Foxtail, Giant [7, 21]: 50 | Foxtail, Giant plant response rating [7, 22]: 70 | Plant response rating, Foxtail, Giant [7, 18]: 0 | Plant response rating, Foxtail, Giant [7, 23]: 40 | Plant response rating, Pigweed [8, 21]: 60 | Pigweed plant response rating [8, 22]: 80 | Plant response rating, Pigweed [8, 18]: 0 | Plant response rating, Pigweed [8, 23]: 50 | Plant response rating, Crabgrass, Large [9, 21]: 30 | Crabgrass, Large plant response rating [9, 22]: 80 | Plant response rating, Crabgrass, Large [9, 18]: 10 | Plant response rating, Crabgrass, Large [9, 23]: 40 | Plant response rating, Wheat [10, 21]: 0 | Wheat plant response rating [10, 22]: 0 | Plant response rating, Wheat [10, 18]: 0 | Plant response rating, Wheat [10, 23]: 20 | Plant response rating, Barnyardgrass [11, 21]: 60 | Barnyardgrass plant response rating [11, 22]: 90 | Plant response rating, Barnyardgrass [11, 18]: 10 | Plant response rating, Barnyardgrass [11, 23]: 30 | Morningglory plant response rating [12, 22]: 70 | Plant response rating, Morningglory [12, 18]: 0 | Plant response rating, Morningglory [12, 23]: 0

C#Cc1ccc(-c2ncc(C(=O)C3=C(O)C4CCC(C4)C3=O)c(=O)n2C2CCCCC2)cc1 (stereo not shown) [Compound 254]
Plant response rating, Flood, Sedge, Umbrella [1]: 80 | Plant response rating, Sedge, Umbrella [1, 20]: 50 | Plant response rating, Sedge, Umbrella [1, 15]: 75 | Sedge, Umbrella plant response rating ([1]; 31 g ai/ha): 30 | Plant response rating, Flood, Ducksalad [2]: 100 | Plant response rating, Ducksalad [2, 20]: 85 | Plant response rating, Ducksalad [2, 15]: 85 | Ducksalad plant response rating ([2]; 31 g ai/ha): 45 | Plant response rating, Flood, Rice [3]: 0 | Plant response rating, Rice [3, 20]: 0 | Plant response rating, Rice [3, 15]: 0 | Rice plant response rating ([3]; 31 g ai/ha): 0 | Plant response rating, Flood, Barnyardgrass [4]: 15 | Plant response rating, Barnyardgrass [4, 20]: 0 | Plant response rating, Barnyardgrass [4, 15]: 10 | Barnyardgrass plant response rating ([4]; 31 g ai/ha): 0 | Plant response rating, Corn [5, 21]: 0 | Corn plant response rating [5, 22]: 10 | Plant response rating, Corn [5, 24]: 0 | Plant response rating, Corn [5, 23]: 0 | Plant response rating, Velvetleaf [6, 16]: 50 | Velvetleaf plant response rating [6, 22]: 90 | Plant response rating, Velvetleaf [6, 24]: 0 | Plant response rating, Velvetleaf [6, 23]: 20 | Plant response rating, Foxtail, Giant [7, 16]: 10 | Foxtail, Giant plant response rating [7, 22]: 50 | Plant response rating, Foxtail, Giant [7, 24]: 0 | Plant response rating, Foxtail, Giant [7, 23]: 30 | Plant response rating, Pigweed [8, 16]: 60 | Pigweed plant response rating [8, 22]: 90 | Plant response rating, Pigweed [8, 24]: 0 | Plant response rating, Pigweed [8, 23]: 0 | Plant response rating, Crabgrass, Large [9, 21]: 20 | Crabgrass, Large plant response rating [9, 22]: 70 | Plant response rating, Crabgrass, Large [9, 24]: 0 | Plant response rating, Crabgrass, Large [9, 23]: 50 | Plant response rating, Wheat [10, 16]: 0 | Wheat plant response rating [10, 22]: 0 | Plant response rating, Wheat [10, 24]: 0 | Plant response rating, Wheat [10, 23]: 0 | Plant response rating, Barnyardgrass [11, 21]: 0 | Barnyardgrass plant response rating [11, 22]: 90 | Plant response rating, Barnyardgrass [11, 24]: 0 | Plant response rating, Barnyardgrass [11, 23]: 10 | Plant response rating, Morningglory [12, 16]: 20 | Morningglory plant response rating [12, 22]: 50 | Plant response rating, Morningglory [12, 24]: 0
